One data set addresses T1, human NPP1 (Homo sapiens, UniProt P22413).
T1 construct: made in house; host or cells: COS-7 cells (transfected; protein extract / cell lysate)
T1 sequence (P22413 1-925): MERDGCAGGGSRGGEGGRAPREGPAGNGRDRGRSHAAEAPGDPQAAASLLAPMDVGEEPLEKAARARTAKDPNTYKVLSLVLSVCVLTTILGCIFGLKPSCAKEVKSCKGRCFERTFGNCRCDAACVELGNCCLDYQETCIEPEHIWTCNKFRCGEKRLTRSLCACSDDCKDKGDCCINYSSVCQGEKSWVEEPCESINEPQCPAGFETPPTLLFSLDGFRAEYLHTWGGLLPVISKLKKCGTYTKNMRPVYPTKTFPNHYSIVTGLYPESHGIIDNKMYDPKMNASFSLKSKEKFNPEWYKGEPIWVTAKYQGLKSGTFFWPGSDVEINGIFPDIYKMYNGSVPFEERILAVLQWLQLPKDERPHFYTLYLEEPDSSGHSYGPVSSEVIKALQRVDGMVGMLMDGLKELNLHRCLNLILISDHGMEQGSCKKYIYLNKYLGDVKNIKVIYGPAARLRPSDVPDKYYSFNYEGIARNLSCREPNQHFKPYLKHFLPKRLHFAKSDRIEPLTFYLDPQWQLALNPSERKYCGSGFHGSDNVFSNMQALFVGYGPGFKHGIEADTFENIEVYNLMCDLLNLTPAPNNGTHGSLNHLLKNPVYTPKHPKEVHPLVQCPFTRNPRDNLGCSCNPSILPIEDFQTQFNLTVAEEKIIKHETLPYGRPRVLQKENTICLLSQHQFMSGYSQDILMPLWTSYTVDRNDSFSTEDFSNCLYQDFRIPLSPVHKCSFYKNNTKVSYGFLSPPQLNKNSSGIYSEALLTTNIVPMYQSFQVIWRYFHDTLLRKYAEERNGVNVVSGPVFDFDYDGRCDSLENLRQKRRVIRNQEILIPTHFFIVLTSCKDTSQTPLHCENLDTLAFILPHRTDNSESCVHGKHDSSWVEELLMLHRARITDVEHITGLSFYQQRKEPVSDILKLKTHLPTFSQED
The experiment in a line: Hydrolysis by human NPP1. The class given is in vitro ADME. Conditions: for Relative hydrolysis by NPP1: over 2 h; for Hydrolysis by NPP1: 100 μM, 1 h, compared to ATP.

Another data set concerns the target T2, human P2Y2-R (Homo sapiens, UniProt P41231).
T2 construct: expressed in transfected cells; host or cells: 1321N1 astrocytoma cells
The experiment in a line: [Ca^2+]i response of 1321N1 astrocytoma cells expressing P2Y2-R GFP. Conditions: for EC50: agonist, read-out: EC50 at the P2Y2 receptor; for activity at the P2Y2 receptor: isomer A of APPCCl2P-α-S at 100 μM. The class given is cell-based. As to the method:
GFP constructs of human P2Y2-R, P2Y1-R and P2Y11-R were stably expressed in 1321N1 astrocytoma cells, which lack endogenous expression of P2X- and P2Y-receptors. The respective cDNA of the receptor gene was cloned into a pEGFPN1 vector and after transfection, using FuGENE 6 Transfection Reagent (Roche Molecular Biochemicals, Mannheim, Germany), cells were selected with 0.5 mg/ml G418 (geneticine; Merck Chemicals, Darmstadt, Germany) and grown in DMEM supplemented with 10% serum (FCS), 100 U/ml penicillin and 100 U/ml streptomycin at 37° C. and 5% CO2. The expression and cell membrane localization of the respective P2Y receptors was confirmed through the analysis of the GFP fluorescence. The functionality of the expressed GFP-labeled receptor in cells was verified by recording a change of [Ca^2+]i after stimulation with the appropriate receptor agonist.
1321N1 astrocytoma cells transfected with the respective plasmid for P2Y-R-GFP expression plated on coverslips (22 mm diameter) and grown to approximately 80% density, were incubated with 2 μM fura 2/AM and 0.02% pluronic acid in Na-HBS buffer (Hepes buffered saline: 145 mM NaCl, 5.4 mM KCl, 1.8 mM CaCl2, 1 mM MgCl2, 25 mM glucose, 20 mM Hepes/Tris pH 7.4) for 30 min at 37° C. The cells were superfused (1 ml/min, 37° C.) with different concentrations of nucleotide in Na-HBS buffer. The nucleotide-induced change of [Ca^2+] was monitored by detecting the fluorescence intensities with excitations at 340 nm and 380 nm. Only GFP-labeled cells were analyzed. Microsoft Excel (Microsoft Corp., Redmond, Wash., USA) and SigmaPlot (SPSS Inc., Chicago, Ill., USA) were used to derive the concentration-response curves and EC50 values from the average response amplitudes obtained in at least three independent experiments (Ecke et al., 2006; Ecke et al., 2008). Only cells with a clear GFP-signal and with the typical calcium response kinetics upon agonist pulse application were included in the data analysis. The nucleotide induced change of [Ca^2+]i was monitored by detecting the respective emission intensity of fura 2/AM at 510 nm with 340 nm and 380 nm excitations (Ubl et al., 1998). The average maximal amplitude of the responses and the respective standard errors were calculated from ratio of the fura 2/AM. The GFP-tagged P2Y receptors are suitable for pharmacological and physiological studies, as previously reported (Tulapurkar et al., 2004; Tulapurkar et al., 2006; Zylberg et al., 2007).

In another data set the target is T3, TNAP (Homo sapiens, UniProt P05186).
T3 sequence (P05186 18-501): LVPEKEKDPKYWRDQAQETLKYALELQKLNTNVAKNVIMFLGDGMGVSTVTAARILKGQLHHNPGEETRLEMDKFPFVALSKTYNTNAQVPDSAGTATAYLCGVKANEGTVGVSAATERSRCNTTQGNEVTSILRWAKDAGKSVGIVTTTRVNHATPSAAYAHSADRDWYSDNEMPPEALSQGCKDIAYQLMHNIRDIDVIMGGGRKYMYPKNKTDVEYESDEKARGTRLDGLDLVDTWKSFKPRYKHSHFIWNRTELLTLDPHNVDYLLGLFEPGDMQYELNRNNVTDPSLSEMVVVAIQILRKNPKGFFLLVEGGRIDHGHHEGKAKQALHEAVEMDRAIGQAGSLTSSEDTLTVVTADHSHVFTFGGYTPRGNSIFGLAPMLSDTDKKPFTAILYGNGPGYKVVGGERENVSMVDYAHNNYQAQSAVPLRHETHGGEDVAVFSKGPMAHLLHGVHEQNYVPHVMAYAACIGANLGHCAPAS
Put plainly: Inhibition of TNAP. The format is biochemical.

As usually defined, the EC50 is the concentration needed to bring the measured effect to its halfway point. For orientation: inhibition means the change of the read-out against control, counted positive when it falls. A lower inhibition goes with little suppression.

T2 sequence (P41231 whole entry): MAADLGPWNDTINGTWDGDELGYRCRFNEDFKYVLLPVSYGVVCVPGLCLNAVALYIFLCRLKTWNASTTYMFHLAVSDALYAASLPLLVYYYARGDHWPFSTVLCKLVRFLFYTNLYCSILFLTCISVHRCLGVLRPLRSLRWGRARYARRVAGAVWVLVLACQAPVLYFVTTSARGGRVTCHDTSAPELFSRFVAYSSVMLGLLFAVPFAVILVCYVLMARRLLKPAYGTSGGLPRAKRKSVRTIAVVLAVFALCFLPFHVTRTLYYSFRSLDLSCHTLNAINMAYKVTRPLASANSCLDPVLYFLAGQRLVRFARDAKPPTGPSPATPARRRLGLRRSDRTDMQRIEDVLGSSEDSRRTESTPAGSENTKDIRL

Take `Nc1ncnc2c1ncn2[C@@H]1O[C@H](COP(=O)(O)OP(O)(O)=S)[C@@H](O)[C@H]1O` [ADP-β-S, adenosine 5′-[β-thio]diphosphate, reference compound]: the “Relative hydrolysis by NPP1” value on human NPP1 is given as “not metabolized at all”.
For `Nc1ncnc2c1ncn2[C@@H]1O[C@H](COP(O)(=S)OP(=O)(O)CP(=O)(O)O)[C@@H](O)[C@H]1O` (single isomer, unassigned; isomer b) [APPCP-α-S (isomer B), adenosine 5′-[Pα-thio]-β,γ-methylenetriphosphate], the “Hydrolysis by NPP1” value on human NPP1 was approximately 4%.
For the compound adenosine-5′-tetrathiobisphosphonate, at human NPP1, the “Relative hydrolysis by NPP1” value is “not metabolized at all”.
For `Nc1ncnc2c1ncn2[C@@H]1O[C@H](COP(O)(=S)OP(=O)(O)C(Cl)(Cl)P(=O)(O)O)[C@@H](O)[C@H]1O` (single isomer, unassigned) [APPCCl2P-α-S, adenosine 5′-[Pα-thio]-β,γ-(dichloromethylene)triphosphate], the EC50 at human P2Y2-R was more than 10 µM.
On to `Nc1ncnc2c1ncn2[C@@H]1O[C@H](COP(O)(=S)OP(=O)(O)C(Cl)(Cl)P(=O)(O)O)[C@@H](O)[C@H]1O` (single isomer, unassigned; isomer a) [APPCCl2P-α-S (isomer A), adenosine 5′-[Pα-thio]-β,γ-(dichloromethylene)triphosphate], for which the “activity at the P2Y2 receptor” value at human P2Y2-R is recorded as “no activity as agonist”. The “inhibition of TNAP” value on TNAP (100 μM) is on record as 17%.
On to `Nc1ncnc2c1ncn2[C@@H]1O[C@H](COP(=O)(O)CP(=O)(O)OP(O)(O)=S)[C@@H](O)[C@H]1O` [APCPP-γ-S, adenosine 5′-[Pγ-thio]-α,β-methylenetriphosphate], for which, on human P2Y2-R, the EC50 was more than 10 µM and the “activity at the P2Y2 receptor” value is given as “neither agonist nor antagonist”. This compound also returned an inhibition at 100 µM at TNAP of 8%.
With `Nc1ncnc2c1ncn2[C@@H]1O[C@H](COP(O)(=S)OP(=O)(O)CP(=O)(O)O)[C@@H](O)[C@H]1O` (single isomer, unassigned; isomer a) [APPCP-α-S (isomer A), adenosine 5′-[Pα-thio]-β,γ-methylenetriphosphate], the “Hydrolysis by NPP1” value on human NPP1 was “fully stable”.
For “di-adenosine-5′,5″-tetrathiobisphosphonate”, at human NPP1, the “Relative hydrolysis by NPP1” value is listed as “not metabolized at all”.

The record behind these values is patent US20140378408A1, “NUCLEOSIDE 5'-PHOSPHOROTHIOATE ANALOGUES AND USES THEREOF” (BAR-ILAN UNIVERSITY, an Israeli University, priority 2012, published 2014).
